# Results from ChEMBL document CHEMBL1127258, “Structurally simplified squalestatins: monocyclic 1,3-dioxane analogues” (Bioorg Med Chem Lett, 1994).
# pIC50: −log10 of the molar value.
# Target: T1, Squalene synthase (Rattus norvegicus, UniProt Q02769)
# T1 sequence (Q02769 whole entry): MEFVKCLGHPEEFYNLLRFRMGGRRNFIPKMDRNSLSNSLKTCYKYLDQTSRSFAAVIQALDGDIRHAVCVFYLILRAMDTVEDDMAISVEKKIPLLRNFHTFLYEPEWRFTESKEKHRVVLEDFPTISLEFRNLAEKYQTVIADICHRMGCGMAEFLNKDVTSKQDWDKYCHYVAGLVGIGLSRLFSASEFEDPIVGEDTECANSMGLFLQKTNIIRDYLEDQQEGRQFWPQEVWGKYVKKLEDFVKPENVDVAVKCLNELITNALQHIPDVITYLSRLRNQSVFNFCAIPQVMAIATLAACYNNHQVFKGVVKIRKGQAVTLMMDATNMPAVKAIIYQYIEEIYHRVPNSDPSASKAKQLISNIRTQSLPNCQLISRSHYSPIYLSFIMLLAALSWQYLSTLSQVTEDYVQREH
# Assay: In vitro inhibitory concentration against squalene synthase from male rat liver microsomes
# Type: tissue-based
row,pIC50,Compound
1,7.41,C=C(CC[C@]12O[C@H](C(=O)O)[C@@](O)(C(=O)O)[C@](C(=O)O)(O1)C(O)OC2O)[C@@H](OC(C)=O)[C@H](C)Cc1ccccc1 (stereo not given in full)
2,6.57,C=C(CC[C@]1(C(N)=O)O[C@H](C(=O)O)[C@@](O)(C(=O)O)[C@](COC(C)=O)(C(=O)O)O1)[C@@H](OC(C)=O)[C@H](C)Cc1ccccc1
3,6.70,C=C(CC[C@@]12O[C@H](C(=O)O)[C@@](O)(C(=O)O)[C@@](C(=O)O)(COC1=O)O2)[C@@H](OC(C)=O)[C@H](C)Cc1ccccc1
4,7.96,C=C(CC[C@]1(C(N)=O)O[C@H](C(=O)O)[C@@](O)(C(=O)O)[C@](COC(=O)/C=C/[C@@H](C)C[C@@H](C)CC)(C(=O)O)O1)[C@@H](OC(C)=O)[C@H](C)Cc1ccccc1
5,7.24,C=C(CC[C@@]12CC[C@@](C(=O)O)(O1)[C@](O)(C(=O)O)[C@@H](C(=O)O)O2)[C@@H](OC(C)=O)[C@H](C)Cc1ccccc1
